# Experimental data reported in patent US7479267B2, “Cell-or organ-differentiation controllers and method of controlling morphogenesis by using the same” (Okayama Prefecture, priority 2000, dated 2009).
# Where two headings read alike, the source gives them in different places.
# Key:
# [1] = test system: Arabidopsis thaliana late-flowering mutant fca; assay type: in vivo
# Description: (§1) Arabidopsis thaliana late-flowering mutant fca (Accession No. N167) obtained from Arabidopsis Stock Center publicly established at the University of Nottingham (U.K.) and wild type plant Ler (Accession No. NW20) were grown at 23° C. under a day length condition of 16-h light/8-h dark cycle at 100 μE/m^2 light intensity and used in the experiments. As a medium, soil consisting of 2 Vermiculite (Asahi Kogyo), 2 Kureha molding for raising seedlings (KUREHA chemical industry Co., Ltd.) and 1 Vermiculite (Asahi Kogyo), which are stacked in layer as the lower, middle and the upper layers, respectively, was used.
# (§2) BSO was dissolved in water at a final concentration of 10^−1M and used as a stock solution. Then, the treatment solutions at 10^−3-10^−7M were prepared from the stock solution (FIGS. 1-3). Two to three plants were placed per a pot (about 40×50 mm) and the treatment solution was added dropwise around the shoot apex at 5 ml/day per a pot. The treatment was performed on day 0 (the initiation date of treatment), 1, 3, 5 and 7, which set of treatments was regarded as one processing.
# The effect of treatment was estimated based on the number of rosette leaves and the elongation rate of floral stem. […]
# An aqueous solution of hydrogen peroxide was prepared immediately before use. […] The values are expressed as mean±standard error.
# [2] = test system: Arabidopsis thaliana wild type plant Ler; assay: Regulation of flowering time in wild type plant Ler; assay type: in vivo
# Description: as §1, §2
# (§3) Glutathione treatment was performed after dissolving glutathione into the BSO solution at a concentration of 10^−4 M.
# (§4) The effect of treatment was estimated based on the number of rosette leaves and the elongation rate of floral stem. […] Cold treatment was performed at 4° C. concurrently with a chemical treatment.
# (§5) (3) BSO treatment and glutathione (GSH) treatment was concurrently performed. BSO solution (concentration: 10^−4 M) to which glutathione was added was used in the same manner as described above.
# [3] = test system: Nicotina tabacum L. callus; assay: Regulation of formation of adventitious bud in callus; assay type: cell-based; details: 0.1 mM BSO, 1 mM GSH or 1 mM GSSG in adventitious formation medium; 3 weeks after induction
# Description: Nicotina tabacum L. leaves grown aseptically was callused in a callus-inducible medium (an essential medium consisting of 1% agar and Murashige and Skoog medium (MS medium) supplied with 0.1 mg/L benzyladenine (BA) and […] naphthaleneacetic acid (NAA)). The resultant callus was transferred to an adventitious formation medium (an essential medium consisting of 1% agar and Murashige and Skoog medium (MS medium) supplied with 1 mg/L BA and […] NAA). To the adventitious-formation medium, 0.1 mM BSO, 1 mM GSH or 1 mM GSSG (oxidized glutathione) was added as a redox-state regulator. The same medium lacking in supplements was prepared and used as a control medium.
# [4] = test system: Arabidopsis thaliana late-flowering mutant fca; assay type: in vivo; remark: listed apart in the source
# Description: as §1, §2, §3, §4, §5
# (§6) An aqueous solution of hydrogen peroxide was prepared immediately before use. Two to three plants were placed per a pot (about 40×50 mm). On 17 days after imbibition and thereafter, the treatment solution was added dropwise around the shoot apex at 5 ml/day per a pot. The treatments were performed on day 0 (the initiation date of treatment), 1, 3, 5 and 7, which set of treatments was regarded as one processing. The time of floral transition was compared using the rosette leaf number as an index. […] The values are expressed as mean±standard error.
# as §6, with “As a redox-state regulator” for “An aqueous solution”, “cells, KCN or NaN3 was used. KCN or sodium azide” for “hydrogen peroxide”, “use and used at concentrations described in FIG. 6 or 7, respectively.” for “use.”, “mm)” for “mm). On 17 days after imbibition”, “and” for “and thereafter, the”, “pot. KCN or NaN3 treatment was started 17 days after imbibition.” for “pot.”
# [5] = test system: Glycine max (cv: Tanbaguro); details: hydrogen peroxide 10^−3M; 23° C.; 1 week after imbibition; microscope
# Description: Soft papers were laid in plastic dishes (100×15 mm) and seeded with Glycine max (cv: Tanbaguro). To the dish was added 15 ml of an aqueous solution of hydrogen peroxide (10^−3M) for imbibition.
# [6] = test system: Triticum aesivum L. (cv. Shirasagi); details: 144 hours (6 days) after imbibition; hydrogen peroxide concentrations of FIG. 8
# Description: Soft papers were laid in plastic dishes (100×15 mm), and seeded with Triticum aesivum L. (cv. Shirasagi) or Oryza sativa L. (cv. Nipponbare) (15 seeds/dish). […] In the figure, the values are expressed as mean±standard error.
# [7] = test system: Zinnia elegans L. (cv. Scarlet Frame); details: 60 mM hydrogen peroxide; 2 days after imbibition (FIG. 9)
# Description: Soft papers were laid in plastic dishes (100×15 mm) and seeded with Zinnia elegans L. (cv. Scarlet Frame) (15 seeds/dish). To the dish was added a solution of hydrogen peroxide up to 15 ml, and allowed to germinate (light condition, 50 μE/m^2, 16-h light/8-h dark cycle; temperature 27° C.). Aqueous solutions each containing hydrogen peroxide at the concentrations indicated in FIG. 9 were prepared immediately before use and applied to the seeds. Observation was performed on 2 days after imbibition (see FIG. 9). In the figure, the concentration of hydrogen peroxide (unit: mM) used in treatment is shown at the right downside of each panel.
# [8] = test system: Arabidopsis thaliana wild type plant Ler; details: hydrogen peroxide 10^−3M; 23° C.; 1 week after imbibition; microscope
# Description: Soft papers were laid in plastic dishes (100×15 mm) and seeded with Arabidopsis thaliana wild type plant Ler. To the dish was added 15 ml of an aqueous solution of hydrogen peroxide (10^−3M) for imbibition. Germination was allowed to arise at 23° C. and the root hair formation was observed 1 week after imbibition under a microscope.
compound,measurement,setting,value
"CCCCS(=N)(=O)CCC(N)C(=O)O [BSO, L-buthionine sulfoximine]",elongation rate of floral stem,"[1]; fca, BSO treatment started day 17, monitored for several months (FIG. 2)",faster than that of control group
same,bolting,[2]; Ler grown in an agar medium containing BSO just after germination,the bolting was delayed
same,transition to flowering,"[2]; Ler, BSO treatment started 12 days after imbibition (FIG. 1B)",significantly accelerated
same,Adventitious buds/callus,[3],30 or more buds/callus
same,flowering time,"[4]; fca, BSO treatment started 12 days after imbibition (FIG. 1A)",delayed
same,rosette leaf number compared with the water treated control group,"[4]; fca, BSO treatment started 17 days after imbibition, result 1 week afterward (FIG. 1C)",decreased
"N[C@@H](CCC(=O)N[C@@H](CS)C(=O)NCC(=O)O)C(=O)O [GSH, glutathione]",transition to flowering with increasing GSH concentration,"[2]; Ler, GSH given concurrently with BSO 10^−4 M, at the time when BSO accelerates flowering (FIG. 3A)",delay of the transition to flowering as GSH concentration increased
same,Adventitious buds/callus,[3],2-3 buds/callus
same,transition to flowering at 1 mM GSH,[4]; in vivo,delay of the transition to flowering
same,transition to flowering with increasing GSH concentration,[4]; in vivo,acceleration of the transition to flowering as GSH concentration increased first
OO [hydrogen peroxide],elongation rate of floral stem,[1]; in vivo,accelerated
same,root hair formation,[5],not in the dish treated with hydrogen peroxide solution
same,cell elongation (length of coleoptile),[6],cells were elongated
same,cotyledon opening,[7],occurred earlier
same,order of emergence of cotyledons and root at germination,[7],cotyledons came out from the pericarp before root did
same,root hair formation,[8],not in the dish treated with hydrogen peroxide solution
same,time of floral transition based on the rosette leaf number,[4]; in vivo,accelerated
oxidized glutathione [GSSG],Adventitious buds/callus,[3],2-3 buds/callus
